Reference: patent US9758526B2, “Quinoline-substituted compound” (TAIHO PHARMACEUTICAL CO., LTD., priority 2013, dated 2017)
Values belong to the molecule of their own block, whether it stands above or below them.

Assays:
[1] = target: T1, EGFR (WT) (Homo sapiens, UniProt P00533); assay: EGFR (WT) kinase inhibitory activity; assay type: biochemical; details: substrate peptide 500 nM
T1 construct: expressing a cytoplasmic domain of human EGFR (WT) with its N-terminus fused to a FLAG tag; FLAG (N); made in house; host or cells: insect Sf9 cells, baculovirus expression system
T1 sequence (P00533 669-1210 limits assumed): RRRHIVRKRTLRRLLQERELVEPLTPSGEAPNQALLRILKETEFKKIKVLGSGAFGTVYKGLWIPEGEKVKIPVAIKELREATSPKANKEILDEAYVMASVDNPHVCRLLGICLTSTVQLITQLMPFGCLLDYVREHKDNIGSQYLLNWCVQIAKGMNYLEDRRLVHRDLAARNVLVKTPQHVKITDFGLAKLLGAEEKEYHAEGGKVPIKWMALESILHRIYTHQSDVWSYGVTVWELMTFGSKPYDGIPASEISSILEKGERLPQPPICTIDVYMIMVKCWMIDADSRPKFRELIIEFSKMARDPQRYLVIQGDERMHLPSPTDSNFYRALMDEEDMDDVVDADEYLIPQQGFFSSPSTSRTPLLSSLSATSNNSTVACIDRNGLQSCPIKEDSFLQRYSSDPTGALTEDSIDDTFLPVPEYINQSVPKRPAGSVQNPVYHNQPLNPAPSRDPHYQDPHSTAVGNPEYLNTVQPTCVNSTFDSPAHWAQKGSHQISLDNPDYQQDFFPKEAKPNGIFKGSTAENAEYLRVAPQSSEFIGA
Experimental: (§1) Among the materials of the inhibitory activity measurement, the substrate peptide and the kinase protein were obtained as follows. A peptide with biotinylated N-terminus (biotin-EEPLYWSFPAKKK) was synthesized with reference to FL-Peptide 22, a reagent for LabChip® series of PerkinElmer, Inc. For the kinase protein, a purified recombinant human EGFR (T790M/L858R) protein of Carna Biosciences, Inc. was purchased.
(§2) The inhibitory activity measurement was performed as follows. The compounds of the present invention were individually dissolved in dimethyl sulfoxide (DMSO), and serial dilutions of these compounds were prepared using DMSO. Subsequently, a solution containing the substrate peptide (final concentration: 250 nM), magnesium chloride (final concentration: 10 mM), manganese chloride (final concentration: 10 mM), and ATP (final concentration: 1 μM) in a buffer solution for kinase reaction (Carna Biosciences, Inc.) was mixed with the dilutions of the compounds (final concentration of DMSO upon kinase reaction: 2.5%) or DMSO (final concentration: 2.5%). EGFR (T790M/L858R) protein was further added thereto, and the mixtures were incubated at 25° C. for 120 minutes to carry out a kinase reaction. EDTA was added thereto to a final concentration of 24 mM to thereby terminate the reaction. A phosphorylated thyrosine detection solution containing europium (Eu)-labeled anti-phosphorylated tyrosine antibody PT66 (PerkinElmer, Inc.) and SureLight APC-SA (PerkinElmer, Inc.) was added to the reaction mixtures, and the mixtures were allowed to stand at room temperature for 2 hours or more. For the background, a sample to which EDTA was added before addition of EGFR (T790M/L858R) protein was incubated at 25° C. for 120 minutes, using DMSO instead of the DMSO solution of the compound. The detection solution was also added to this sample, and the mixture was allowed to stand for 2 hours or more. Finally, for all of the test samples, the amount of fluorescence at the time of irradiation of excitation light having a wavelength of 337 nm was measured at dual wavelengths of 620 nm and 665 nm by PHERAstar FS (BMG LABTECH), and a ratio of the fluorescence amounts at the two wavelengths was obtained as data.
(§3) Based on the above rates, phosphorylation inhibition rates (%) were calculated for the samples to which various concentrations of the compound solutions were added. Finally, the obtained reaction inhibition rates (%) at the respective concentrations were plotted for each compound, and the IC50 value (nM), which is a compound concentration at which phosphorylation by EGFR (T790M/L858R) is inhibited by 50%, was determined using XLfit curve-fitting software (IDBS).
The inhibitory activities of the compounds of the present invention against EGFR (WT) kinase activity were measured.
The materials, the measurement method, and the data analysis method were substantially the same as those shown in the above description regarding “Measurement of EGFR (T790M/L858R) Kinase Inhibitory Activity,” except that a kinase protein prepared by expressing a cytoplasmic domain of human EGFR (WT) with its N-terminus fused to a FLAG tag in insect Sf9 cells using a baculovirus expression system and then purifying it with anti-FLAG antibody agarose (Sigma-Aldrich) was used as the kinase protein, the final concentration of the substrate peptide was 500 nM, and the final concentration of ATP was […]. Finally, the IC50 value (nM) of each compound with respect to EGFR (WT) was determined by data analysis.

[2] = test system: HCC827 expressing EGFR (d746-750); assay: Growth inhibition, HCC827 expressing EGFR (d746-750); assay type: cell-based; details: Homo sapiens, HCC827, 72 h; cultured three days, CellTiter-Glo
Experimental: (§4) (1) A human […] lung cancer cell line NCI-H1975 expressing EGFR (T790M/L858R), (2) a human non-small cell lung cancer cell line HCC827 expressing EGFR (d746-750), and (3) a human epithelioid cancer cell line A431 expressing EGFR (WT) were each suspended in complete growth medium recommended by ATCC. The cell suspensions were seeded in each well of a 384-well flat microplate or a 96-well flat plate, and cultured in an incubator containing 5% carbon dioxide gas at 37° C. for one day. Each compound of the present invention was dissolved in DMSO, and serial dilutions of the test compound were prepared using DMSO (to a concentration 500 times the final concentration). The DMSO solution of the test compound or DMSO was diluted with complete growth medium, and the resulting solution was added to each well of the cell culture plate so that the final concentration of DMSO was 0.2%. Then, the cells were cultured in an incubator containing 5% carbon dioxide gas at 37° C. for three days. The number of cells was measured before the addition of the DMSO solution of the test compound, as well as after addition and culture by using a CellTiter-Glo Assay® (produced by Promega) according to a protocol recommended by Promega.
(§5) For each cell, the cell growth inhibition rates of the wells to which the test compounds at various concentrations were added were calculated by the following formula. Then, the obtained inhibition rates (%) at the respective concentrations were plotted for each test compound, and the GI50 value (nM), which is a test compound concentration at which the cell growth can be inhibited by 50%, was determined using XLfit curve-fitting software (IDBS). • Cell Growth Inhibition Rate (%)=(C−T)/(C−CO)×100 • T: Luminescence intensity of well cultured for three days after addition of the test compound solution • C: Luminescence intensity of well cultured for three days after addition of DMSO • C0: Luminescence intensity of well before addition of the test compound solution

[3] = test system: NCI-H1975 expressing EGFR (T790M/L858R); assay: Growth inhibition, NCI-H1975 expressing EGFR (T790M/L858R); assay type: cell-based; details: Homo sapiens, NCI-H1975, 72 h; cultured three days, CellTiter-Glo
Experimental: as §4, §5

[4] = target: T2, EGFR (L858R) (Homo sapiens, UniProt P00533, L858R); assay: EGFR (L858R) kinase inhibitory activity; assay type: biochemical; details: ATP 4 μM
T2 construct: purchased Carna Biosciences, Inc
T2 sequence (P00533 25-1210 L858R): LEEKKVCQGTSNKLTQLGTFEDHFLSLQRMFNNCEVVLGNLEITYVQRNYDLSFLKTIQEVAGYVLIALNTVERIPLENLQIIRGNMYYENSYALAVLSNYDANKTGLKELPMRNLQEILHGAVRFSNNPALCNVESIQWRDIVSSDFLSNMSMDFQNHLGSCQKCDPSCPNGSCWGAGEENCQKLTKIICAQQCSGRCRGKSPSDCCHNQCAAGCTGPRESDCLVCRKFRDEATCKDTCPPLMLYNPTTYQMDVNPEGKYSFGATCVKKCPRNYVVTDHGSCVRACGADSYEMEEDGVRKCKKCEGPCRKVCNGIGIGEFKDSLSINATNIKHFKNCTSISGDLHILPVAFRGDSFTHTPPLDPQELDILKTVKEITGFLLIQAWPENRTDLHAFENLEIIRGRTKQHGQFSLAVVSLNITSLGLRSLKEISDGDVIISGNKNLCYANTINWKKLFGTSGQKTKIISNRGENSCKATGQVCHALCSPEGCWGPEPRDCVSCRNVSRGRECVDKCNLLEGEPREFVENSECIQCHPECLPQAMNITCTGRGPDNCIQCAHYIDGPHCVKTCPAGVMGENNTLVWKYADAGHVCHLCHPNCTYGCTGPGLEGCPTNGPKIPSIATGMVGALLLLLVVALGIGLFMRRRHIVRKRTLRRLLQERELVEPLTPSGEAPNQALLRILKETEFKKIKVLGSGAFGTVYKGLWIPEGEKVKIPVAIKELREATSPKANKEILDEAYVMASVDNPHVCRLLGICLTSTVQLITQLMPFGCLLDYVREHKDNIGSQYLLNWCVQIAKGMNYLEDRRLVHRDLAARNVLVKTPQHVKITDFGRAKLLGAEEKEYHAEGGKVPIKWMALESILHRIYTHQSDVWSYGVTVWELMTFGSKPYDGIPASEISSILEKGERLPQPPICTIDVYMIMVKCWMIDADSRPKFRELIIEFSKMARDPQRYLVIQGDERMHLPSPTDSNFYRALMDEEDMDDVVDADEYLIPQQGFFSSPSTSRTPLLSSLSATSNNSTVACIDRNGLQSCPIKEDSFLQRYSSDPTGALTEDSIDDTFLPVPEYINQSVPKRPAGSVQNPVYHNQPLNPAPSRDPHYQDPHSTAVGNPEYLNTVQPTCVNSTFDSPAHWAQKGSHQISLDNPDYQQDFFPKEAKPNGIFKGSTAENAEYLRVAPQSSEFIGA
Experimental: as §1, §2, §3
The inhibitory activities of the compounds of the present invention against EGFR (L858R) kinase activity were measured.
The materials, the measurement method, and the data analysis method were substantially the same as those shown in the above description regarding “Measurement of EGFR (T790M/L858R) Kinase Inhibitory Activity,” except that a purified recombinant human EGFR (L858R) protein purchased from Carna Biosciences, Inc. was used as the kinase protein, and the measurement was performed with ATP at a final concentration of 4 μM. Finally, the IC50 value (nM) of each compound with respect to EGFR (L858R) was determined by data analysis.

[5] = target: T3, EGFR (d746-750/T790M) (Homo sapiens, UniProt P00533, DEL746-750/T790M); assay: EGFR (d746-750/T790M) kinase inhibitory activity; assay type: biochemical; details: ATP 1.5 μM
T3 construct: purchased Carna Biosciences, Inc
T3 sequence (P00533 with tags, fused parts or gaps DEL746-750/T790M limits assumed): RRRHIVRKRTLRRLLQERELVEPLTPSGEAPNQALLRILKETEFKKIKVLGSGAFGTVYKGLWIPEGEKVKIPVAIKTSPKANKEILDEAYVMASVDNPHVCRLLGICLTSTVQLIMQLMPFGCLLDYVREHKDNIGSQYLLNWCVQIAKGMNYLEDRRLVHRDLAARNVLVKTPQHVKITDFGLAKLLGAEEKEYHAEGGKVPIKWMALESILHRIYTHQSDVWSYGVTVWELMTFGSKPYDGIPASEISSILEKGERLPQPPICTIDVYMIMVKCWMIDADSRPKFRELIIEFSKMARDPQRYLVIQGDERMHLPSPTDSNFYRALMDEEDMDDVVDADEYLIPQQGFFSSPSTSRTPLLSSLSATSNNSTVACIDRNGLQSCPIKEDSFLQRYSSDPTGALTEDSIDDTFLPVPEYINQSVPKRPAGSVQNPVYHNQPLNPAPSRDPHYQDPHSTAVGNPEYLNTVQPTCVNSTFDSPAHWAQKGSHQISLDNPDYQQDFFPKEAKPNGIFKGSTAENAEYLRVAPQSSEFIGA
Experimental: as §1, §2, §3
The inhibitory activities of the compounds of the present invention against EGFR (d746-750/T790M) kinase activity were measured.
The materials, the measurement method, and the data analysis method were substantially the same as those shown in the above description regarding “Measurement of EGFR (T790M/L858R) Kinase Inhibitory Activity,” except that a purified recombinant human EGFR (d746-750/T790M) protein purchased from Carna Biosciences, Inc. was used as the kinase protein, and the measurement was performed with an ATP final concentration of 1.5 μM. Finally, the IC50 value (nM) of each compound with respect to EGFR (d746-750/T790M) was determined by data analysis.

[6] = target: T4, EGFR (T790M/L858R) (Homo sapiens, UniProt P00533, L858R/T790M); assay: EGFR (T790M/L858R) kinase inhibitory activity; assay type: biochemical; details: for IC50: ATP 1 μM, 25° C. for 120 minutes
T4 construct: purchased Carna Biosciences, Inc
T4 sequence (P00533 25-1210 T790M/L858R): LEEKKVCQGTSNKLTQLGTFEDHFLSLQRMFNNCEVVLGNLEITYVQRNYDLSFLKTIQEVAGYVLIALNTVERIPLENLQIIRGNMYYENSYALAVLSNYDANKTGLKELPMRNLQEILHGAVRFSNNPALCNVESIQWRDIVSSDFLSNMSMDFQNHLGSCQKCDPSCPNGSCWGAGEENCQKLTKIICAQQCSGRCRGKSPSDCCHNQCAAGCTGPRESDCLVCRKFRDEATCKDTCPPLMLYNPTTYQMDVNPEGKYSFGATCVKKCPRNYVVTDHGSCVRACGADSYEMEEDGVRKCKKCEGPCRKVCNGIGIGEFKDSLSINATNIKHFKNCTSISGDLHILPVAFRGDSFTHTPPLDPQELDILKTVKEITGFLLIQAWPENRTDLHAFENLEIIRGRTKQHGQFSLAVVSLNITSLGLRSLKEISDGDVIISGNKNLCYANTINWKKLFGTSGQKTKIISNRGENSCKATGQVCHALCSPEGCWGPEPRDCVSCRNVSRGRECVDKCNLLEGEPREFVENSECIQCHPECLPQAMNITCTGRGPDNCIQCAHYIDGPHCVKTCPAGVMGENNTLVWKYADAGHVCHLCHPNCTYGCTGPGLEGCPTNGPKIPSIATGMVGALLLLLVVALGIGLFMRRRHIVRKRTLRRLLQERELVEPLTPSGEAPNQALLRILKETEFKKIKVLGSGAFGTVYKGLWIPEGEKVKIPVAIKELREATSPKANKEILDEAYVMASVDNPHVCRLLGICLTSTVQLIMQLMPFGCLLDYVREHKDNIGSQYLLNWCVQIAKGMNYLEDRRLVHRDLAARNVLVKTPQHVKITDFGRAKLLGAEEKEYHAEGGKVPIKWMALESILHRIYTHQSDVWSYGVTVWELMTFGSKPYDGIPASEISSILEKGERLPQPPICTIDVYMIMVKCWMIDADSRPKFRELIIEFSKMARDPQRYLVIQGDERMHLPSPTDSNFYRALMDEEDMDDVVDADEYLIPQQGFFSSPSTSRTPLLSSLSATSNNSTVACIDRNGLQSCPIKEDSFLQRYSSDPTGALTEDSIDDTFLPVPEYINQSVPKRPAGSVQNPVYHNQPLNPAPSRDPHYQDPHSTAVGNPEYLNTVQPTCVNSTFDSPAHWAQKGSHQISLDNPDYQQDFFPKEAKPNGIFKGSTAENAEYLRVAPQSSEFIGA
Experimental: The inhibitory activities of the compounds of the present invention against EGFR (T790M/L858R) kinase activity were measured.
as §1, §2, §3

[7] = target: T5, EGFR (d746-750) (Homo sapiens, UniProt P00533, DEL746-750); assay: EGFR (d746-750) kinase inhibitory activity; assay type: biochemical; details: ATP 5 μM, kinase reaction 90 minutes
T5 construct: purchased Carna Biosciences, Inc
T5 sequence (P00533 with tags, fused parts or gaps DEL746-750 limits assumed): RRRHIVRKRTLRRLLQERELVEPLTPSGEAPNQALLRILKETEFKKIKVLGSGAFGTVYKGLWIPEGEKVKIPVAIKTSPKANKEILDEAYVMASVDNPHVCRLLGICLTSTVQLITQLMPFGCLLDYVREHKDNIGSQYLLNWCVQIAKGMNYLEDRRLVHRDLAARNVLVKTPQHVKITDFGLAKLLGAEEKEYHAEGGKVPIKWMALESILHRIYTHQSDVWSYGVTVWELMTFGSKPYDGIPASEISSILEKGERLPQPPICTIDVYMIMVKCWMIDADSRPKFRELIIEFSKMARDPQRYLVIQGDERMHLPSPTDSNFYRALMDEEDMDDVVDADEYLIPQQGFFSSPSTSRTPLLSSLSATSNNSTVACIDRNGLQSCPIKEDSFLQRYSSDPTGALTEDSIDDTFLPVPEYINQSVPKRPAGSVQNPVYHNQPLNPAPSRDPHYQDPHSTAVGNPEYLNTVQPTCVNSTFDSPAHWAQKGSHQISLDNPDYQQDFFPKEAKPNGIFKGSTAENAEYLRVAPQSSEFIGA
Experimental: as §1, §2, §3
The inhibitory activities of the compounds of the present invention against EGFR (d746-750) kinase activity were measured.
The materials, the measurement method, and the data analysis method were substantially the same as those shown in the above description regarding “Measurement of EGFR (T790M/L858R) Kinase Inhibitory Activity,” except that a purified recombinant human EGFR (d746-750) protein purchased from Carna Biosciences, Inc. was used as the kinase protein, the measurement was performed with ATP at a final concentration of 5 μM, and the incubation for the kinase reaction was performed for 90 minutes. Finally, the IC50 value (nM) of each compound with respect to EGFR (d746-750) was determined by data analysis.

[8] = test system: A431 expressing EGFR (WT); assay: Growth inhibition, A431 expressing EGFR (WT); assay type: cell-based; details: Homo sapiens, A-431, 72 h; cultured three days, CellTiter-Glo
Experimental: as §4, §5

Structure (SMILES): C=CC(=O)N[C@H]1Cn2c(c(-c3cnc4ccccc4c3)c3c(N)ncnc32)C1=C [Example 25, (R)—N-(4-amino-6-methylene-5-(quinolin-3-yl)-7,8-dihydro-6H-pyrimido[5,4-b]pyrrolizin-7-yl)acrylamide]
GI50 [2]: 260 nM
GI50 [3]: 2500 nM
IC50 [4]: 100 nM
IC50 [5]: 11 nM
IC50 [6]: 36 nM
IC50 [7]: 59 nM
GI50 [8]: > 10000 nM

Structure (SMILES): C=CC(=O)N[C@H]1CC(C)c2c(-c3cnc4ccccc4c3)c3c(N)ncnc3n2C1 (stereo partly drawn) [Example 29]
GI50 [2]: 89 nM
GI50 [3]: 1600 nM
IC50 [4]: 19 nM
IC50 [5]: 8.4 nM
IC50 [6]: 14 nM
IC50 [7]: 21 nM
GI50 [8]: > 10000 nM

Structure (SMILES): Nc1ncnc2c1c(-c1cccc(NC(=O)c3ccccc3)c1)c1n2CCCC1 [Comparative Example 1, N-(3-(4-amino-6,7,8,9-tetrahydropyrimido[5,4-b]indolizin-5-yl)phenyl)benzamide, reference compound]
inhibitory activity against EGFR kinases (in words) ([6]; summary for EGFR (L858R), (d746-750), (T790M/L858R), (d746-750/T790M), for the comparative compound all EGFR kinases tested): almost no inhibitory activity

Structure (SMILES): C=CC(=O)N[C@H]1C=Cc2c(-c3cnc4ccccc4c3)c3c(N)ncnc3n2C1 [Example 27, (S)—N-(4-amino-5-(quinolin-3-yl)-8,9-dihydropyrimido[5,4-b]indolizin-8-yl)acrylamide]
GI50 [2]: 15 nM
GI50 [3]: 110 nM
IC50 [4]: 0.35 nM
IC50 [5]: 0.25 nM
IC50 [6]: 0.34 nM
IC50 [7]: 0.38 nM
GI50 [8]: 1000 nM

Structure (SMILES): C=CC(=O)N(C)[C@@H]1Cn2c(c(-c3cnc4ccccc4c3)c3c(N)ncnc32)C1=C [Example 26, (S)—N-(4-amino-6-methylene-5-(quinolin-3-yl)-7,8-dihydro-6H-pyrimido[5,4-b]pyrrolizin-7-yl)-N-methylacrylamide]
GI50 [2]: 18.4 nM
GI50 [3]: 150 nM
IC50 [4]: 1.7 nM
IC50 [5]: 0.31 nM
IC50 [6]: 1 nM
IC50 [7]: 1.1 nM
GI50 [8]: 4700 nM

The remaining lines, values ahead:

IC50 [1]: 0.7 nM
GI50 [2]: 1.9 nM
GI50 [3]: 9 nM
IC50 [4]: < 0.5 nM
IC50 [5]: < 0.15 nM
IC50 [6]: < 0.5 nM
IC50 [7]: < 0.15 nM
GI50 [8]: 370 nM
Structure (SMILES): C=CC(=O)N[C@@H]1Cn2c(c(-c3cnc4ccccc4c3)c3c(N)ncnc32)C1=C [Example 1, (S)—N-(4-amino-6-methylene-5-(quinolin-3-yl)-7,8-dihydro-6H-pyrimido[5,4-b]pyrrolizin-7-yl)acrylamide]

IC50 [1]: 7.8 nM
GI50 [2]: 8.1 nM
GI50 [3]: 56 nM
IC50 [4]: 1.1 nM
IC50 [5]: 0.34 nM
IC50 [6]: 0.6 nM
IC50 [7]: 0.72 nM
GI50 [8]: 2600 nM
Structure (SMILES): C=CC(=O)N(C)[C@H]1Cn2c(c(-c3cnc4ccccc4c3)c3c(N)ncnc32)C1=C [Example 21, (R)—N-(4-amino-6-methylene-5-(quinolin-3-yl)-7,8-dihydro-6H-pyrimido[5,4-b]pyrrolizin-7-yl)-N-methylacrylamide]

IC50 [1]: 11 nM
GI50 [2]: 7.9 nM
GI50 [3]: 240 nM
IC50 [4]: 1.2 nM
IC50 [5]: 0.29 nM
IC50 [6]: 0.66 nM
IC50 [7]: 0.75 nM
GI50 [8]: 3500 nM
Structure (SMILES): C=C1c2c(-c3cnc4ccccc4c3)c3c(N)ncnc3n2C[C@H]1NC(=O)/C=C/CN(C)C(C)C [Example 12, (S,E)-N-(4-amino-6-methylene-5-(quinolin-3-yl)-7,8-dihydro-6H-pyrimido[5,4-b]pyrrolizin-7-yl)-4-(isopropyl(methyl)amino)but-2-enamide]

GI50 [2]: 14 nM
GI50 [3]: 48 nM
IC50 [4]: 0.49 nM
IC50 [5]: < 0.5 nM
IC50 [6]: 0.3 nM
IC50 [7]: 0.27 nM
GI50 [8]: 1200 nM
Structure (SMILES): C=CC(=O)N[C@H]1C=Cc2c(-c3cnc4ccccc4c3)c3c(N)ncnc3n2CC1 [Example 28, (R)—N-(4-amino-5-(quinolin-3-yl)-9,10-dihydro-8H-pyrimido[5′,4′:4,5]pyrrolo[1,2-a]azepin-8-yl)acrylamide]
